According to patent US12263169B2, “Methods of treating neuroepithelial tumors using selective glucocorticoid receptor modulators” (Corcept Therapeutics, Inc., priority 2017, dated 2025):

Assays:
[1] = tested on: GBM4; test: Cell growth inhibition (Alamar Blue cell viability assay); assay type: cell-based; conditions: Homo sapiens, GBM4 patient-derived neurosphere line, 72 hours treatment, triplicate
Description: (§1) The effect of GRMs on the growth in culture of human and mouse glioblastoma cells was examined. The GRMs mifepristone and CORT125134 inhibited growth in culture of each of five different glioblastoma cell lines. The highest drug concentration tested was 50 μM. The cell lines used were the Standard Serum Human glioblastoma (GBM) Cell lines: U251, GL261, U87, and the patient-derived neurosphere cell lines GBM8 and GBM4. Cells were plated at cell numbers of 2000 cells/well, in a 96-well format; the experiments were done in triplicate. Cell growth inhibition by the applied drugs was assayed. Cell growth inhibition was quantified by the Alamar Blue method using a commercial assay kit. Cell growth inhibition was determined (“read out”) after 72 hours of treatment. […] Cell Cultures: The human glioblastoma cell lines (obtained from the American Type Culture Collection (ATCC), Manassas VA, USA) tested were U251 and U87 (human), and GL261 (mouse). These were grown as an adherent monolayer cultured in DMEM supplemented with 10% fetal bovine serum (FBS) (Seradigm, a subsidiary of VWR, Radnor PA, USA) and 1% glutamine pen-strep (Omega Scientific, Tarzana CA, USA). GBM8 (passage 12) and GBM4 are patient derived glioma stem cell lines obtained and cultured as neurospheres (spheroids) as described by Galli et al., “Isolation and characterization of tumorigenic, stem-like neural precursors from human glioblastoma” Cancer Res 2004, 64 (19), 7011-21 and Lee et al., “Tumor stem cells derived from glioblastomas cultured in bFGF and EGF more closely mirror the phenotype and genotype of primary tumors than do serum-cultured cell lines” Cancer Cell 2006, 9 (5), 391-403. Initial GBM surgical samples were dissociated in stem cell isolation medium containing human recombinant EGF ([…]), human bFGF ([…]) and heparin (2 μg/ml), washed, filtered through a 30 μm mesh and plated onto ultra-low adherence flasks at a concentration of 5×10^5 to 1.5×10^6 viable cells/ml. Sphere cultures were passaged by dissociation, washing and resuspension in neural stem cell culture medium (NeuroCult™ NS-A Proliferation kit #05751, Stemcell Technologies, Vancouver, BC, CA), according to the manufacturer's instructions. Cell Viability Assay: Cells were seeded into 96-well plates at a density of 2000 cells per well. Compounds were added 24 hours after the seeding of cells. All compounds were diluted in 1% FBS/DMEM. The control was treated with media alone. After 3 days incubation (37° C./5% CO2) Alamar Blue (#BUF012B, AbDSerotec, Kidlington, UK) was added according to the manufacturer's protocol, directly to the medium and placed back in the tissue culture incubator (37° C. 5% CO2). After 3-18 hours fluorescent signal was read at 544ex/590em (SpectraMax i3x plate reader, Molecular Devices, San Jose CA, USA) to determine the number of viable cells. The IC50 values were calculated using commercial software (Prism 5 Software, GraphPad, La Jolla CA, USA). After 24 hours post incubation, cells were treated with drugs at various concentrations for 72 hours. Cell viability was measured after 72 hours by Alamar Blue and results reported as triplicate experiment. The following Table presents the IC50 values as determined in these experiments.

[2] = tested on: GBM8; test: as above; assay type: cell-based; conditions: Homo sapiens, GBM8 patient-derived neurosphere line, 72 hours treatment, triplicate
Description: as §1

[3] = tested on: GL261; test: as above; assay type: cell-based; conditions: Mus musculus, GL261 standard GBM line, 72 hours treatment, triplicate
Description: as §1

[4] = tested on: U251; test: as above; assay type: cell-based; conditions: Homo sapiens, U-251, U251 standard GBM line, 72 hours treatment, triplicate
Description: as §1

[5] = tested on: U87; test: as above; assay type: cell-based; conditions: Homo sapiens, U-87 MG, U87 standard GBM line, 72 hours treatment, triplicate
Description: as §1

[6] = tested on: glioblastoma cell lines U251, GL261, U87, GBM8 and GBM4; test: Cell growth inhibition, summary over five glioblastoma cell lines; assay type: cell-based, human and mouse; conditions: range over five glioblastoma cell lines, 72 hours treatment, Alamar Blue; read-out: half-maximal inhibition concentration (IC50) values, range over the cell lines
Description: The effect of GRMs on the growth in culture of human and mouse glioblastoma cells was examined. The GRMs mifepristone and CORT125134 inhibited growth in culture of each of five different glioblastoma cell lines. The highest drug concentration tested was 50 μM. The cell lines used were the Standard Serum Human glioblastoma (GBM) Cell lines: U251, GL261, U87, and the patient-derived neurosphere cell lines GBM8 and GBM4. Cells were plated at cell numbers of 2000 cells/well, in a 96-well format; the experiments were done in triplicate. Cell growth inhibition by the applied drugs was assayed. Cell growth inhibition was quantified by the Alamar Blue method using a commercial assay kit. Cell growth inhibition was determined (“read out”) after 72 hours of treatment. […] Cell Cultures: The human glioblastoma cell lines (obtained from the American Type Culture Collection (ATCC), Manassas VA, USA) tested were U251 and U87 (human), and GL261 (mouse). […] After 3-18 hours fluorescent signal was read at 544ex/590em (SpectraMax i3x plate reader, Molecular Devices, San Jose CA, USA) to determine the number of viable cells. The IC50 values were calculated using commercial software (Prism 5 Software, GraphPad, La Jolla CA, USA). […] Cell viability was measured after 72 hours by Alamar Blue and results reported as triplicate experiment. The following Table presents the IC50 values as determined in these experiments.

[7] = tested on: meningioma; test: Treating a meningioma patient with SGRM, tumor load monitored by enhanced MRI; assay type: in vivo, human; conditions: 200 mg once a day for eight weeks
Description: A patient complains of tinnitus and right-sided hearing loss for 6 months. […] They are treated with CORT125134 at a dose of 200 mg once a day for eight weeks. Their tumor load is monitored using enhanced MRI before, during and after the treatment.
A patient complains of tinnitus and right-sided hearing loss for 6 months. […] They are treated with CORT125281 at a dose of 200 mg once a day for eight weeks. Their tumor load is monitored using enhanced MRI before, during and after the treatment.

SMILES	IC50 [1] [µM]	IC50 [2] [µM]	IC50 [3] [µM]	IC50 [4] [µM]	IC50 [5] [µM]	IC50 [6] [µM]	reduction of tumor size as compared to baseline at the end of the treatment period [7]
Cn1cc(S(=O)(=O)N2CCC3=Cc4c(cnn4-c4ccc(F)cc4)C[C@]3(C(=O)c3cc(C(F)(F)F)ccn3)C2)cn1 [CORT125134, (R)-(1-(4-fluorophenyl)-6-((1-methyl-1H-pyrazol-4-yl)sulfonyl)-4,4a,5,6,7,8-hexahydro-1H-pyrazolo[3,4-g]isoquinolin-4a-yl)(4-(trifluoromethyl)pyridin-2-yl)methanone]	20.7	29.1	5.86	12.5	5.42	5 to 29	more than 50%
Cn1ncc(S(=O)(=O)N2CC[C@H]3Cc4c(cnn4-c4ccc(F)cc4)C[C@]3(C(=O)c3cc(C(F)(F)F)ccn3)C2)n1 [CORT125281, ((4aR,8aS)-1-(4-fluorophenyl)-6-((2-methyl-2H-1,2,3-triazol-4-yl)sulfonyl)-4,4a,5,6,7,8,8a,9-octahydro-1H-pyrazolo[3,4-g]isoquinolin-4a-yl)(4-(trifluoromethyl)pyridin-2-yl)methanone]							more than 50%
CC#C[C@]1(O)CC[C@H]2[C@@H]3CCC4=CC(=O)CCC4=C3[C@@H](c3ccc(N(C)C)cc3)C[C@@]21C [Mifepristone, 17-β-hydrox-11-β-(4-dimethyl-aminophenyl)17-α-(1-propynyl)estra-4,9-dien-3-one, reference compound]	24.1	24	15.7	18.4	18.4	16 to 24	
